Test results from patent US20240174618A1, “SUBSTITUTED (2-HETEROARYLOXYPHENYL)SULFONATES, SALTS THEREOF AND THEIR USE AS HERBICIDAL AGENTS” (Bayer Aktiengesellschaft, priority 2021, published 2024).

How the values were obtained:
Format in all cases: in vivo
[1] = system: Zea mays (ZEAMX); test: D. Pre-emergence effect on useful plants, ZEAMX; conditions: useful plant, application rate 80 g/ha
Source text: (§1) Seeds of monocotyledonous and dicotyledonous weed plants and crop plants were placed in plastic or organic planting pots and covered with soil. The compounds of the invention, formulated in the form of wettable powders (WP) or as emulsion concentrates (EC), were then applied to the surface of the covering soil as aqueous suspension or emulsion with addition of 0.5% additive at a water application rate equivalent to 600 l/ha (converted). After the treatment, the pots were placed in a greenhouse and kept under good growth conditions for the test plants. After about 3 weeks, the efficacy of the preparations was scored visually in comparison with untreated controls as percentages. For example, • 100% efficacy=plants have died, • 0% efficacy=like untreated control plants.
(§2) Tables D1a to D5b below show the effects of selected compounds of the general formula (I) according to table 1 on various useful plants at an application rate corresponding to 320 g/ha or less, which were obtained by the experimental procedure mentioned above.

[2] = system: Amaranthus retroflexus (AMARE); test: C. Herbicidal pre-emergence efficacy, AMARE; conditions: scored after about 3 weeks
Source text: as §1
(§3) Tables C1a to C14b below show the effects of selected compounds of the general formula (I) according to table 1 on various harmful plants at an application rate corresponding to 320 g/ha or less, which were obtained by the experimental procedure mentioned above.

[3] = system: Echinochloa crus-galli (ECHCG); test: C. Herbicidal pre-emergence efficacy, ECHCG; conditions: 320 g/ha, scored after about 3 weeks
Source text: as §1, §3

[4] = system: Kochia scoparia (KCHSC); test: E. Herbicidal post-emergence efficacy, KCHSC
Experimental: (§4) Seeds of monocotyledonous and dicotyledonous weeds and crop plants were placed in sandy loam in plastic or organic planting pots, covered with soil and cultivated in a greenhouse under controlled growth conditions. 2 to 3 weeks after sowing, the test plants were treated at the one-leaf stage. The compounds of the invention, formulated in the form of wettable powders (WP) or as emulsion concentrates (EC), were then sprayed onto the green parts of the plants as aqueous suspension or emulsion with addition of 0.5% additive at a water application rate of 600 l/ha (converted). After the test plants had been kept in the greenhouse under optimum growth conditions for about 3 weeks, the activity of the preparations was rated visually in comparison to untreated controls.
(§5) For example, • 100% efficacy=plants have died, • 0% action=like untreated control plants.
(§6) Tables E1a to E12b below show the effects of selected compounds of the general formula (I) according to table 1 on various harmful plants at an application rate corresponding to 320 g/ha or less, which were obtained by the experimental procedure mentioned above.

[5] = system: Alopecurus myosuroides (ALOMY); test: C. Herbicidal pre-emergence efficacy, ALOMY; conditions: 320 g/ha, scored after about 3 weeks
Source text: as §1, §3

[6] = system: Veronica persica (VERPE); test: E. Herbicidal post-emergence efficacy, VERPE
Experimental: as §4, §5, §6

[7] = system: Zea mays (ZEAMX); test: F. Post-emergence effect on useful plants, ZEAMX; conditions: useful plant, application rate 80 g/ha
Experimental: as §4, §5
(§7) Tables F1a to F4 below show the effects of selected compounds of the general formula (I) according to table 1 on various useful plants at an application rate corresponding to 320 g/ha or less, which were obtained by the experimental procedure mentioned above.

[8] = system: Lolium rigidum (LOLRI); test: C. Herbicidal pre-emergence efficacy, LOLRI; conditions: 320 g/ha, scored after about 3 weeks
Source text: as §1, §3

[9] = system: Viola tricolor (VIOTR); test: E. Herbicidal post-emergence efficacy, VIOTR
Experimental: as §4, §5, §6

[10] = system: Digitaria sanguinalis (DIGSA); test: C. Herbicidal pre-emergence efficacy, DIGSA; conditions: 320 g/ha, scored after about 3 weeks
Source text: as §1, §3

[11] = system: Triticum aestivum (TRZAS); test: F. Post-emergence effect on useful plants, TRZAS; conditions: useful plant
Experimental: as §4, §5, §7

[12] = system: Triticum aestivum (TRZAS); test: D. Pre-emergence effect on useful plants, TRZAS; conditions: useful plant, application rate 80 g/ha
Source text: as §1, §2

[13] = system: Echinochloa crus-galli (ECHCG); test: E. Herbicidal post-emergence efficacy, ECHCG; conditions: application rate 320 g/ha
Experimental: as §4, §5, §6

[14] = system: Abutilon theophrasti (ABUTH); test: C. Herbicidal pre-emergence efficacy, ABUTH; conditions: scored after about 3 weeks
Source text: as §1, §3

[15] = system: Setaria viridis (SETVI); test: E. Herbicidal post-emergence efficacy, SETVI; conditions: application rate 320 g/ha
Experimental: as §4, §5, §6

[16] = system: Viola tricolor (VIOTR); test: C. Herbicidal pre-emergence efficacy, VIOTR
Source text: as §1, §3

[17] = system: Amaranthus retroflexus (AMARE); test: E. Herbicidal post-emergence efficacy, AMARE
Experimental: as §4, §5, §6

[18] = system: Polygonum convolvulus (POLCO); test: E. Herbicidal post-emergence efficacy, POLCO; conditions: application rate 320 g/ha
Experimental: as §4, §5, §6

[19] = system: Kochia scoparia (KCHSC); test: C. Herbicidal pre-emergence efficacy, KCHSC; conditions: application rate 320 g/ha
Source text: as §1, §3

[20] = system: Setaria viridis (SETVI); test: C. Herbicidal pre-emergence efficacy, SETVI; conditions: 320 g/ha, scored after about 3 weeks
Source text: as §1, §3

[21] = system: Glycine max (GLXMA); test: D. Pre-emergence effect on useful plants, GLXMA; conditions: useful plant, application rate 80 g/ha
Source text: as §1, §2

[22] = system: Abutilon theophrasti (ABUTH); test: E. Herbicidal post-emergence efficacy, ABUTH; conditions: application rate 320 g/ha
Experimental: as §4, §5, §6

[23] = system: Polygonum convolvulus (POLCO); test: C. Herbicidal pre-emergence efficacy, POLCO; conditions: 320 g/ha, scored after about 3 weeks
Source text: as §1, §3

[24] = system: Pharbitis purpurea (PHBPU); test: E. Herbicidal post-emergence efficacy, PHBPU
Experimental: as §4, §5, §6

[25] = system: Veronica persica (VERPE); test: C. Herbicidal pre-emergence efficacy, VERPE; conditions: 320 g/ha, scored after about 3 weeks
Source text: as §1, §3

[26] = system: Poa annua (POAAN); test: B. Herbicidal post-emergence efficacy, POAAN
Outline: (§8)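 Readout: visual % kill vs untreated, ~3 wk post-spray. Plants in sandy loam pots, treated at one-leaf stage; spray = WP/EC in water + 0.5% additive, 600 L/ha, dose ≤1280 g/ha.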

[27] = system: Abutilon theophrasti (ABUTH); test: B. Herbicidal post-emergence efficacy, ABUTH; conditions: rated visually after about 3 weeks
Outline: as §8

[28] = system: Lolium rigidum (LOLRI); test: B. Herbicidal post-emergence efficacy, LOLRI; conditions: 1280 g/ha
Experimental: Seeds of mono- and dicotyledonous weed plants were placed in plastic pots in sandy loam soil (doubly sown with in each case one species of mono- or dicotyledonous weed plants per pot), covered with soil and cultivated in a greenhouse under controlled growth conditions. 2 to 3 weeks after sowing, the test plants were treated at the one-leaf stage. The compounds of the invention, formulated in the form of wettable powders (WP) or as emulsion concentrates (EC), were applied onto the green parts of the plants as aqueous suspension or emulsion with addition of 0.5% additive at a water application rate of 600 liters per hectare (converted). After the test plants had been kept in the greenhouse under optimum growth conditions for about 3 weeks, the activity of the preparations was rated visually in comparison to untreated controls.
For example, • 100% efficacy=plants have died, • 0% efficacy=like untreated control plants
Tables B1a to B12c below show the effects of selected inventive compounds of the general formula (I) according to table 1 on various harmful plants at an application rate corresponding to 1280 g/ha or less, which were obtained by the experimental procedure mentioned above.

[29] = system: Amaranthus retroflexus (AMARE); test: B. Herbicidal post-emergence efficacy, AMARE
Outline: as §8

[30] = system: Poa annua (POAAN); test: A. Herbicidal pre-emergence efficacy, POAAN
Outline: (§9)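 Pre-emergence soil-surface spray in sandy loam pots, WP/EC in water plus 0.5% additive, 600 L/ha. Visual % damage rating after about 3 weeks in greenhouse vs. untreated; 0% = control-like, 100% = dead plants. Rates up to 1280 g/ha.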

[31] = system: Veronica persica (VERPE); test: B. Herbicidal post-emergence efficacy, VERPE
Outline: as §8

[32] = system: Kochia scoparia (KCHSC); test: B. Herbicidal post-emergence efficacy, KCHSC; conditions: 1280 g/ha
Outline: as §8

[33] = system: Stellaria media (STEME); test: B. Herbicidal post-emergence efficacy, STEME
Outline: as §8

[34] = system: Echinochloa crus-galli (ECHCG); test: B. Herbicidal post-emergence efficacy, ECHCG; conditions: rated visually after about 3 weeks
Outline: as §8

[35] = system: Amaranthus retroflexus (AMARE); test: A. Herbicidal pre-emergence efficacy, AMARE
Outline: as §9

[36] = system: Digitaria sanguinalis (DIGSA); test: A. Herbicidal pre-emergence efficacy, DIGSA; conditions: scored visually after about 3 weeks vs untreated controls
Outline: as §9

[37] = system: Setaria viridis (SETVI); test: A. Herbicidal pre-emergence efficacy, SETVI
Outline: as §9

[38] = system: Stellaria media (STEME); test: A. Herbicidal pre-emergence efficacy, STEME
Outline: as §9

SMILES: Cc1cccc(Oc2ncc(Cl)cn2)c1OS(=O)(=O)CCC(F)=C(F)F [Example I-71]
- Pre-emergence efficacy against ZEAMX in % [1]: 0%
- Pre-emergence efficacy against AMARE ([2]; 80 g/ha): 100%
- Pre-emergence efficacy against AMARE ([2]; 320 g/ha): 100%
- Pre-emergence efficacy against ECHCG [3]: 100%
- Post-emergence efficacy against KCHSC in % ([4]; application rate 80 g/ha): 100%
- Post-emergence efficacy against KCHSC in % ([4]; application rate 320 g/ha): 100%
- Pre-emergence efficacy against ALOMY [5]: 80%
- Post-emergence efficacy against VERPE in % ([6]; application rate 80 g/ha): 80%
- Post-emergence efficacy against VERPE in % ([6]; application rate 320 g/ha): 100%
- Post-emergence efficacy against ZEAMX in % [7]: 0%
- Pre-emergence efficacy against LOLRI [8]: 80%
- Post-emergence efficacy against VIOTR in % ([9]; application rate 80 g/ha): 90%
- Post-emergence efficacy against VIOTR in % ([9]; application rate 320 g/ha): 100%
- Pre-emergence efficacy against DIGSA [10]: 100%
- Post-emergence efficacy against TRZAS in % ([11]; application rate 80 g/ha): 0%
- Post-emergence efficacy against TRZAS in % ([11]; application rate 320 g/ha): 0%
- Pre-emergence efficacy against TRZAS in % [12]: 0%
- Post-emergence efficacy against ECHCG in % [13]: 90%
- Pre-emergence efficacy against ABUTH ([14]; 80 g/ha): 80%
- Pre-emergence efficacy against ABUTH ([14]; 320 g/ha): 100%
- Post-emergence efficacy against SETVI in % [15]: 100%
- Pre-emergence efficacy against VIOTR in % ([16]; application rate 80 g/ha): 100%
- Pre-emergence efficacy against VIOTR in % ([16]; application rate 320 g/ha): 100%
- Post-emergence efficacy against AMARE in % ([17]; application rate 80 g/ha): 90%
- Post-emergence efficacy against AMARE in % ([17]; application rate 320 g/ha): 100%
- Post-emergence efficacy against POLCO in % [18]: 100%
- Pre-emergence efficacy against KCHSC in % [19]: 100%
- Pre-emergence efficacy against SETVI [20]: 100%
- Pre-emergence efficacy against GLXMA in % [21]: 10%
- Post-emergence efficacy against ABUTH in % [22]: 100%
- Pre-emergence efficacy against POLCO [23]: 100%
- Post-emergence efficacy against PHBPU in % ([24]; application rate 80 g/ha): 80%
- Post-emergence efficacy against PHBPU in % ([24]; application rate 320 g/ha): 90%
- Pre-emergence efficacy against VERPE [25]: 90%

SMILES: Cc1cccc(Oc2ncc(Cl)cn2)c1OS(=O)(=O)CC1CC1(Cl)Cl (stereo not drawn) [Example I-76]
- Post-emergence efficacy against POAAN ([26]; 320 g/ha): 90%
- Post-emergence efficacy against POAAN ([26]; 1280 g/ha): 100%
- Post-emergence efficacy against ABUTH in % ([27]; 80 g/ha): 90%
- Post-emergence efficacy against ABUTH in % ([27]; 320 g/ha): 90%
- Post-emergence efficacy against ABUTH in % ([27]; 1280 g/ha): 100%
- Post-emergence efficacy against LOLRI [28]: 90%
- Post-emergence efficacy against AMARE ([29]; 80 g/ha): 90%
- Post-emergence efficacy against AMARE ([29]; 320 g/ha): 100%
- Post-emergence efficacy against AMARE ([29]; 1280 g/ha): 100%
- Pre-emergence efficacy against POAAN ([30]; dosage 320 g/ha): 90%
- Pre-emergence efficacy against POAAN ([30]; dosage 1280 g/ha): 90%
- Post-emergence efficacy against VERPE ([31]; 80 g/ha): 90%
- Post-emergence efficacy against VERPE ([31]; 320 g/ha): 100%
- Post-emergence efficacy against VERPE ([31]; 1280 g/ha): 100%
- Post-emergence efficacy against KCHSC [32]: 90%
- Post-emergence efficacy against STEME ([33]; 80 g/ha): 90%
- Post-emergence efficacy against STEME ([33]; 320 g/ha): 100%
- Post-emergence efficacy against STEME ([33]; 1280 g/ha): 100%
- Post-emergence efficacy against ECHCG in % ([34]; 320 g/ha): 90%
- Post-emergence efficacy against ECHCG in % ([34]; 1280 g/ha): 100%
- Pre-emergence efficacy against AMARE in % ([35]; 320 g/ha): 90%
- Pre-emergence efficacy against AMARE in % ([35]; 1280 g/ha): 100%
- Pre-emergence efficacy against DIGSA ([36]; 320 g/ha): 90%
- Pre-emergence efficacy against DIGSA ([36]; 1280 g/ha): 90%
- Pre-emergence efficacy against SETVI ([37]; dosage 320 g/ha): 100%
- Pre-emergence efficacy against SETVI ([37]; dosage 1280 g/ha): 100%
- Pre-emergence efficacy against STEME ([38]; dosage 80 g/ha): 90%
- Pre-emergence efficacy against STEME ([38]; dosage 320 g/ha): 90%
- Pre-emergence efficacy against STEME ([38]; dosage 1280 g/ha): 100%
